Measurements from ChEMBL document CHEMBL1201862, “PubChem BioAssay data set” (2004).
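Grown in 96-well plates, cells were treated for 48 hours with each compound at five concentrations. Insufficient inhibition: endpoint recorded as highest concentration tested. GI50 = concentration required for 50% inhibition of growth.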 The source made the active and inactive calls. Rule as the data show it: active = GI50 up to about 1.1 µM and inactive = higher.

Key:
Test in all cases: DTP human tumour cell line panel, 48 h
RPMI-8226 = system: RPMI-8226
OVCAR-3 = system: OVCAR-3
SF-268 = system: SF-268
Malme-3M = system: Malme-3M
HCT-15 = system: HCT-15
EKVX = system: EKVX
SF-295 = system: SF-295
CCRF-CEM = system: CCRF-CEM
NCI-H460 = system: NCI-H460
M14 = system: M14
LOX IMVI = system: LOX IMVI
NCI-H522 = system: NCI-H522
U-251 = system: U-251
SK-MEL-5 = system: SK-MEL-5
HCT-116 = system: HCT-116
UACC-257 = system: UACC-257
HCC 2998 = system: HCC 2998
UO-31 = system: UO-31
UACC-62 = system: UACC-62
OVCAR-8 = system: OVCAR-8

| SMILES | GI50 (RPMI-8226) | GI50 (OVCAR-3) | GI50 (SF-268) | GI50 (Malme-3M) | GI50 (HCT-15) [µM] | GI50 (EKVX) | GI50 (SF-295) | GI50 (CCRF-CEM) | GI50 (NCI-H460) | GI50 (M14) | GI50 (LOX IMVI) | GI50 (NCI-H522) | GI50 (U-251) | GI50 (SK-MEL-5) | GI50 (HCT-116) | GI50 (UACC-257) | GI50 (HCC 2998) | GI50 (UO-31) | GI50 (UACC-62) | GI50 (OVCAR-8) |
| --- | --- | --- | --- | --- | --- | --- | --- | --- | --- | --- | --- | --- | --- | --- | --- | --- | --- | --- | --- | --- |
| O=c1[nH]nc(-c2ccccc2)n1/N=C/c1ccccc1Cl | 21.1 µM (inactive) | 23.8 µM (inactive) | 53.6 µM (inactive) | 20.3 µM (inactive) | 31.6 | 45.9 µM (inactive) | 34 µM (inactive) | 28.1 µM (inactive) | 13 µM (inactive) | 35.4 µM (inactive) | 25.1 µM (inactive) | 18 µM (inactive) | 38.5 µM (inactive) | 18.6 µM (inactive) | 33.9 µM (inactive) | 64 µM (inactive) | 36.2 µM (inactive) | 42.8 µM (inactive) | 20 µM (inactive) | 39.1 µM (inactive) |
| COc1c2c(nc3ccccc13)-c1cc3c(c(=O)n1C2)COC(=O)C3(O)CC(=O)N1CCOCC1 (stereo not given) | 6.43 µM (inactive) | 19.4 µM (inactive) | 0.532 µM (active) | 16.3 µM (inactive) | 41.4 | 43.2 µM (inactive) | 3.59 µM (inactive) | 0.164 µM (active) | 1.17 µM (inactive) | 4.04 µM (inactive) | 1.36 µM (inactive) | 1.9 µM (inactive) | 0.528 µM (active) | 4.09 µM (inactive) | 6.55 µM (inactive) | 19 µM (inactive) | 18.2 µM (inactive) | 7.16 µM (inactive) | 0.76 µM (active) | 3.58 µM (inactive) |
| C=C1CC(C)(COc2ccc3c(C)c(C)c(=O)oc3c2C)OC1=O (stereo not given) | 0.594 µM (active) | 3.3 µM (inactive) | 4.15 µM (inactive) | 1.39 µM (inactive) | 1.56 | 5.52 µM (inactive) | 5.19 µM (inactive) | 0.411 µM (active) | 5.33 µM (inactive) | 2.56 µM (inactive) | 1.2 µM (inactive) | 1.56 µM (inactive) | 6.56 µM (inactive) | 1.68 µM (inactive) | 0.879 µM (active) | 2.09 µM (inactive) | 1.76 µM (inactive) | 9.18 µM (inactive) | 1.27 µM (inactive) | 2.11 µM (inactive) |
| COc1ccc(OC)c(/C=C/NC=O)c1 | > 100 µM (inactive) | > 100 µM (inactive) | > 100 µM (inactive) | > 100 µM (inactive) | > 100 | > 100 µM (inactive) | > 100 µM (inactive) | > 100 µM (inactive) | > 100 µM (inactive) | > 100 µM (inactive) | > 100 µM (inactive) | > 100 µM (inactive) | > 100 µM (inactive) | > 100 µM (inactive) | > 100 µM (inactive) | > 100 µM (inactive) | > 100 µM (inactive) | > 100 µM (inactive) | > 100 µM (inactive) | > 100 µM (inactive) |
| BrP(NC1CCCCCC1)(c1ccccc1)(c1ccccc1)c1ccccc1 | 1.03 µM (active) | 3.38 µM (inactive) | 2.88 µM (inactive) | 2.93 µM (inactive) | 18.8 | 7.14 µM (inactive) | 3.03 µM (inactive) | 2.97 µM (inactive) | 1.33 µM (inactive) | 12.4 µM (inactive) | 2.36 µM (inactive) | 2.23 µM (inactive) | 3.55 µM (inactive) | 1.59 µM (inactive) | 4.74 µM (inactive) | 1.86 µM (inactive) | 2.04 µM (inactive) | 4.25 µM (inactive) | 3.03 µM (inactive) | 2.9 µM (inactive) |
| C=CC[N+]12CN3CN(CN(C3)C1)C2 | 4.14 µM (inactive) | 43.9 µM (inactive) | 24.6 µM (inactive) | 18.7 µM (inactive) | 22.6 | 20.4 µM (inactive) | > 100 µM (inactive) | 5.83 µM (inactive) | 24.2 µM (inactive) | 25.8 µM (inactive) | 27 µM (inactive) | 14.3 µM (inactive) | 31.9 µM (inactive) | 36.6 µM (inactive) | 19 µM (inactive) | 24.5 µM (inactive) | 24 µM (inactive) | 21 µM (inactive) | 27.4 µM (inactive) | 24 µM (inactive) |
| CCOC(=O)c1ccc(C(=O)n2ccnc2)[nH]1 | > 100 µM (inactive) | > 100 µM (inactive) | > 100 µM (inactive) | > 100 µM (inactive) | > 100 | > 100 µM (inactive) | > 100 µM (inactive) | > 100 µM (inactive) | > 100 µM (inactive) | > 100 µM (inactive) | > 100 µM (inactive) | > 100 µM (inactive) | > 100 µM (inactive) | > 100 µM (inactive) | > 100 µM (inactive) | > 100 µM (inactive) | > 100 µM (inactive) | > 100 µM (inactive) | > 100 µM (inactive) | > 100 µM (inactive) |
| CCOC(=O)CC[C@H](NC(=O)c1nc[nH]c1/N=N/N(C)C)C(=O)OCC | > 100 µM (inactive) | > 100 µM (inactive) | > 100 µM (inactive) | > 100 µM (inactive) | > 100 | > 100 µM (inactive) | > 100 µM (inactive) | > 100 µM (inactive) | > 100 µM (inactive) | > 100 µM (inactive) | > 100 µM (inactive) | > 100 µM (inactive) | > 100 µM (inactive) | > 100 µM (inactive) | > 100 µM (inactive) | > 100 µM (inactive) | > 100 µM (inactive) | > 100 µM (inactive) | > 100 µM (inactive) | > 100 µM (inactive) |
